Reference: ChEMBL document CHEMBL1201862, “PubChem BioAssay data set” (2004)
The source made the active and inactive calls.

Assays:
[1] = target: Serine/threonine-protein phosphatase PP1-alpha catalytic subunit (Homo sapiens, UniProt P62136); assay: PP1 phosphatase inhibitors, dose response, biochemical, fluorescence (AID 2394)
[2] = target: SUMO-activating enzyme (Homo sapiens, UniProt Q9UBT2); assay: SUMOylation inhibitor hit validation, confirmation, SUMOylation inhibitor project, biochemical, AlphaScreen (AID 2018); format: functional
[3] = target: T1, Apoptotic protease-activating factor 1 (Homo sapiens, UniProt O14727); format: functional
T1 sequence (O14727 whole entry): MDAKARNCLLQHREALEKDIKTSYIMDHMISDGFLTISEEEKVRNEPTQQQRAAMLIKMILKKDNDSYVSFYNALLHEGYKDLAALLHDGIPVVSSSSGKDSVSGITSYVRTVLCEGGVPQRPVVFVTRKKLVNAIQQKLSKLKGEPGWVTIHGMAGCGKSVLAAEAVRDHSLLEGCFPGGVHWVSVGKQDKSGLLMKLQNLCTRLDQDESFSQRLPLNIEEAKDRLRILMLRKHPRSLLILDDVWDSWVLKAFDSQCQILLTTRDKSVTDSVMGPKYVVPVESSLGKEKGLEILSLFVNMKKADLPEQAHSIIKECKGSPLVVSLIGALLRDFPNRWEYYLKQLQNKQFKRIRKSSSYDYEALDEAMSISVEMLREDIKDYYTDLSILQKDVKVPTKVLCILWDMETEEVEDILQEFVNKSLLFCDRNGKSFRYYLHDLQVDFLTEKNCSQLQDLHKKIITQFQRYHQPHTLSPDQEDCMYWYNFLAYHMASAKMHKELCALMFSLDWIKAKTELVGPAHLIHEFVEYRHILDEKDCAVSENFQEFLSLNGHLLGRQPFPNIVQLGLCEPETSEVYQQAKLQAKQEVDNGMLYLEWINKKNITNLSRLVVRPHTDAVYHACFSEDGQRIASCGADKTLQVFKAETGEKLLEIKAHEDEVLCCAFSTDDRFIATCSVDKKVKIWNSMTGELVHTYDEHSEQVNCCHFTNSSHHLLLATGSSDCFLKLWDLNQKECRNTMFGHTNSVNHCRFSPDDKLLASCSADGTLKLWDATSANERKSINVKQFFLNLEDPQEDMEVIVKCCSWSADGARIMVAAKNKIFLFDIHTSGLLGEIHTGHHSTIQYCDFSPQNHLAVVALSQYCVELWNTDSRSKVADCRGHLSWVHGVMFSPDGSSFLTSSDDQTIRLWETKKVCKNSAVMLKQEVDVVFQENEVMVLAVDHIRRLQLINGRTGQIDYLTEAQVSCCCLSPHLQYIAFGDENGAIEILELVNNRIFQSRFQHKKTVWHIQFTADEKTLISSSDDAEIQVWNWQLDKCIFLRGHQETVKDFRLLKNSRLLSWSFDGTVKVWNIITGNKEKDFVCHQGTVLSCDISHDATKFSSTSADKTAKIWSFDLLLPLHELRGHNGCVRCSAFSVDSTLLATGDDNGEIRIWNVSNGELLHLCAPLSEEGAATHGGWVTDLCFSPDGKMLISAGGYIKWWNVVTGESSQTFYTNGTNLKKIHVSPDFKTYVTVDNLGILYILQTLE

[4] = tested on: BJ; assay: cytotoxicity toward BJ-TERT fibroblasts, dose response, cell-based, RAS-independent, luminescence (AID 1933); format: functional; details: Homo sapiens
[5] = cells; format: functional, cell-based
[6] = tested on: Vero; assay: cells; format: functional; details: Chlorocebus sabaeus
[7] = target: T2, Streptokinase A (Streptococcus pyogenes serotype M1, UniProt P10520); assay: S. pyogenes streptokinase expression inhibitors, potency, dose response, plasminogen activation absorbance, OD405 (AID 1914); format: functional, Streptococcus pyogenes M1 GAS;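 also: secreted streptokinase activity via plasminogen activation per viability signal from cell pellet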
T2 sequence (P10520 whole entry): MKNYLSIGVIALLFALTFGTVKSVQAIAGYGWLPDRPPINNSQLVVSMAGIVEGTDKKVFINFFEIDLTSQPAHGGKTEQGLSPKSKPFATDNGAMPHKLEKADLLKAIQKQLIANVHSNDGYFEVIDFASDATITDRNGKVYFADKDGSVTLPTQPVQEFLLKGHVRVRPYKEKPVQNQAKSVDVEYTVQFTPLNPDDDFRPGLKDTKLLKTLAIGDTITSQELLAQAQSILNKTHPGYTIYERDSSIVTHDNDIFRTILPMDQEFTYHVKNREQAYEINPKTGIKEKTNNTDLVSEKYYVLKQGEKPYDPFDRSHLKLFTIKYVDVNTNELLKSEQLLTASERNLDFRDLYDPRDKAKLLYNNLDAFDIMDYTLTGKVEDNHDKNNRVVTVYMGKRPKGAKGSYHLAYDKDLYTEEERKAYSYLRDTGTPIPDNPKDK

[8] = target: Small ubiquitin-related modifier 2 (Homo sapiens, UniProt P61956); assay: inhibitors of SUMO2 protein-protein interaction, dose response, selectivity assay for SUMO1 interaction inhibitor project, biochemical, FRET, human SUMO2, uHTS hits (AID 624384); format: functional; details: read-out: IC50_Mean
Small ubiquitin-related modifier 2, sequence (P61956 whole entry): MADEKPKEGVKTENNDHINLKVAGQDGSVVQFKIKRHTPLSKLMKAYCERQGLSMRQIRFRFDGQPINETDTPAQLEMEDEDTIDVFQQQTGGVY

Serine/threonine-protein phosphatase PP1-alpha catalytic subunit, sequence (P62136 whole entry): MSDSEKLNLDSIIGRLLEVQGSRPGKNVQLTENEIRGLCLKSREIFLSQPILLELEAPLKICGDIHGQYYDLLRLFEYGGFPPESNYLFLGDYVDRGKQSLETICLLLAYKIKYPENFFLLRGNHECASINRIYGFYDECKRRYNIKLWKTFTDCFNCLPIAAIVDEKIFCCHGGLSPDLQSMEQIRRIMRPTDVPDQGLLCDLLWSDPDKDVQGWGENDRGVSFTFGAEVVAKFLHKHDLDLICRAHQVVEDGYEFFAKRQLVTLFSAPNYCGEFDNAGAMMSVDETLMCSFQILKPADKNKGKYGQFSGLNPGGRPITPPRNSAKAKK
SUMO-activating enzyme, sequence (Q9UBE0 whole entry): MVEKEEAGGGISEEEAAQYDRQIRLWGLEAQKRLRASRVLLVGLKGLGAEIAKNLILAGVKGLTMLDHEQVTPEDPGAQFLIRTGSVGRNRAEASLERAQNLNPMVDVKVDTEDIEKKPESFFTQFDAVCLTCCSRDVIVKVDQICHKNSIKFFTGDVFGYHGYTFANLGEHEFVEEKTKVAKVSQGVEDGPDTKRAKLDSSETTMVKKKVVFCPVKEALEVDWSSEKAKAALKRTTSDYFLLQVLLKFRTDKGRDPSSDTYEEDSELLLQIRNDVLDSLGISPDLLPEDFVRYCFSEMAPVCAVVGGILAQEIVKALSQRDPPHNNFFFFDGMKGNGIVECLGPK
SUMO-activating enzyme, sequence (Q9UBT2 whole entry): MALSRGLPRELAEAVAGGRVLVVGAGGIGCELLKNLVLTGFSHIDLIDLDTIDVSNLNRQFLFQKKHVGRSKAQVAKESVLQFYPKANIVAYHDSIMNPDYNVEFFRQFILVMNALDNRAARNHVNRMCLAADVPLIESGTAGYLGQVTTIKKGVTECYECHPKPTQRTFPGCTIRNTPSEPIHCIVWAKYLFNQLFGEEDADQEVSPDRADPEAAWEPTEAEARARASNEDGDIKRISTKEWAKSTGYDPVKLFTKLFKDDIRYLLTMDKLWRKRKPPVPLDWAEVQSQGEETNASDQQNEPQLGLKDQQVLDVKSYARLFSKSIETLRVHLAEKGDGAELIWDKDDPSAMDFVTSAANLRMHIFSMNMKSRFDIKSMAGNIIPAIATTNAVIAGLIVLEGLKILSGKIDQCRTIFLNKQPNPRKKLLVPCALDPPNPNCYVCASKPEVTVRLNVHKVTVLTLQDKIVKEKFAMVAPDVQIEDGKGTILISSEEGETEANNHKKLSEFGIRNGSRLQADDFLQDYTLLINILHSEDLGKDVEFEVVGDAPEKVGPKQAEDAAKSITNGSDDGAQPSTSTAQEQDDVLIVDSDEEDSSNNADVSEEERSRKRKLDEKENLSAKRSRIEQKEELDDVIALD

With N#Cc1c(N2CCCCC2)nc(N)c2c(N)nc(SCC(=O)O)cc12 the IC50 [1] was 44.1 µM (not active) and the IC50 [2] was 860 nM (active).
For CC1(C)Cc2ccccc2C2=NNC(=O)C2=N1, the IC50 [3] was 14 µM (active).
In the case of CCCC(=O)NC(c1ccc(C(C)C)cc1)c1ccc2cccnc2c1O (stereo not drawn), the EC50 [4] was 2.3 µM (active), the EC50 [5] was 3.8 µM (active) and the CC50 [6] was 2.88 µM (active).
For Oc1c(Cl)cc(Cl)c(Cl)c1Cc1c(O)c(Cl)cc(Cl)c1Cl [HEXACHLOROPHENE], the EC50 [7] was > 150 µM (not active) and the IC50 [8] was 15.8 µM (active).
